Measurements as given in patent US20220193241A1, “AGENT TARGETING DOUBLE-MEMBRANE ORGANELLE DNA” (CHIBA-PREFECTURE, priority 2019, published 2022).

Experiments:
Type in all cases: cell-based
[1] = system: A549 cells; test: Trypan blue assay of live cell numbers; conditions: A549, 7 days later
Description: (§1) The A549 cells and the PC14 cells were inoculated at 5×10^3 cells/dish and 1×10^4 cells/dish, respectively, to 35 mm glass base dishes (IWAKI, Japan), cultured for 24 hours, and then treated with CCC021-TPP (final concentration: 20 μM). Further, 24 hours later, the culture solution was discarded, and a DMEM culture solution containing Mito Tracker(R) Red CMXRos (Life Technologies, USA) was added to attain 100 nM. 30 minutes later, the cells were washed twice with PBS, then fixed in 4% PFA for 30 minutes, then medium-replaced with PBS, preserved at 4° C., immunostained with the antibody by the method described in Example 1, and observed under confocal laser microscope SP8 (Leica, Germany). […] A549 and PC14 were each inoculated at 5×10^2 cells/well to 16 wells of a 96-well plate, cultured for 24 hours, and then treated with CCC021-TPP at 0, 1, 2, 5, 10, 25, and 50 μM each for 2 wells. 5 days later, the cells were reacted at room temperature for 2 hours using CytoSelect™ MTT Cell Proliferation Assay (Cosmo Bio Co., Ltd.), followed by the measurement of absorbance at 590 nm with SPECTRAFLUOR Plus (Tecan Group Ltd.) to conduct a rechallenge experiment of cell proliferation. […] 7 days later, as for change in the live cell numbers of the A549 cells and the PC14 cells, the live cell numbers were measured by trypan blue staining to experimentally examine cell survival rates.

[2] = system: PC14 cells; test: Trypan blue assay of live cell numbers; conditions: PC14, 7 days later
Description: as §1

[3] = system: A549 cells; test: SA-β-Gal staining (senescence marker β-galactosidase); conditions: 20 μM, 5 days
Description: In order to study whether cellular senescence was induced, the activity of a senescence marker β-galactosidase was determined with SPiDER-β-Gal (DOINDO) in the A549 cells and the PC14 cells after CCC021-TPP administration. 1000 cells were inoculated to a 35 mm dish and then cultured for 24 hours. Then, CCC021-TPP was administered (final concentration: 20 μM), and the cells were cultured for 5 days, washed twice with Hanks' balanced salt solution (HBSS) (pH 7.3), then treated with 500 μL of 4% paraformaldehyde at room temperature for 3 minutes, then washed twice with HBSS again, then treated with 500 μl of SPiDER-β-Gal Working Solution at 37° C. for 30 minutes, then washed once with HBSS, and observed under SP8 confocal microscope.

[4] = system: A549 cells; test: MTT cell proliferation assay
Description: as §1

[5] = system: PC14 cells; test: MTT cell proliferation assay; conditions: PC14, 5 days
Description: as §1

[6] = system: A549 cells; test: GFP-LC3 transfection and Mito Tracker Red fluorescence observation; conditions: 20 μM, 4 days
Description: 5×10^4 cells were inoculated and cultured for 24 hours. Then, 500 μL of OptiMEM, 10 μg of vector DNA (7.5 μL of P3000 reagent), and 20 μL of Lipofectamine(R) 3000 (Thermo Fisher Scientific) were added to the cells, which were then left at room temperature for 5 minutes for transfection and cultured for 24 hours. Then, 1000 subcultured cells were inoculated, cultured with 20 μM CCC021-TPP for 4 days, and then confirmed by fluorescence observation with Mito Tracker Red.

[7] = system: A549 cells; test: Expression of apoptosis-related factors by RT-qPCR; conditions: 5 days after treatment
Description: Accordingly, as for the maintenance of senescent cells by the circumvention of apoptosis as well as change in the expression of anti-apoptotic factors BCL-XL, BCL2, and survivin and an pro-apoptotic factor BAX by CCC021-TPP treatment, the cells were recovered 5 days after CCC021-TPP treatment as described above, and RNA extraction, RNA reverse-transcription, cDNA synthesis, and RT-qPCR were performed in the same manner as in Example 1 to examine the expression of apoptosis-related factors (BCL-XL, BCL2, survivin, and BAX) in the A549 cells and the PC14 cells. The primers used for the amplification of each gene are shown below. For qPCR, amplification was performed under conditions involving a holding stage of 50° C. for 2 min→95° C. for 10 min followed by 40 cycles of a cycling stage each involving 95° C. for 15 sec→60° C. for 1 min using Applied Biosystems(R) 7500 real-time PCR system, and melt curve analysis after amplification was conducted at a melt curve stage of 95° C. for 15 sec→60° C. for 1 min→95° C. for 15 sec→60° C. for 15 sec to confirm reaction specificity from the absence of primer dimer by-products or the like in PCR products.

Structure (SMILES): CN(C)CCCNC(=O)CCNC(=O)c1cc(NC(=O)c2cc(NC(=O)CCNC(=O)c3nc(NC(=O)c4cc(NC(=O)c5cc(NC(=O)CCNC(=O)CCCC[P+](c6ccccc6)(c6ccccc6)c6ccccc6)cn5C)cn4C)cn3C)cn2C)cn1C [CCC021-TPP]
- viability (trypan blue) [1]: no influence on the viability
- viability (trypan blue) [2]: no influence on the viability
- activity of senescence marker β-galactosidase [3]: elevated activity of β-galactosidase was confirmed
- cell morphology after administration ([4]; A549): senescent morphology
- IC50 ([4]; Homo sapiens, 120 h, A549, 5 days): 7.97 µM
- IC50 (MTT assay) [5]: incalculable
- localization of GFP-LC3 on mitochondria [6]: colocalized with red fluorescence from Mito Tracker Red
- expression of anti-apoptotic factor BCL-XL [7]: increased
- expression of pro-apoptotic factor BAX [7]: increased expression
- expression of survivin [7]: decreased expression
